Laboratory results published in paper PMC11277489, “Novel Piperazine Derivatives of Vindoline as Anticancer Agents” (International Journal of Molecular Sciences, 2024).

Tests used:
IGROV1 = test: NCI60 one-dose screen (10 μM), Ovarian Cancer; assay type: cell-based; settings: Homo sapiens, IGROV-1; 10 μM; IGROV1, Ovarian Cancer; read-out: Growth percent rate
TK-10 = test: NCI60 one-dose screen (10 μM), Renal Cancer; assay type: cell-based; settings: Homo sapiens; 10 μM; TK-10, Renal Cancer; read-out: Growth percent rate
CAKI-1 = test: NCI60 one-dose screen (10 μM), Renal Cancer; assay type: cell-based; settings: Homo sapiens; 10 μM; CAKI-1, Renal Cancer; read-out: Growth percent rate
SK-MEL-28 = test: NCI60 one-dose screen (10 μM), Melanoma; assay type: cell-based; settings: Homo sapiens; 10 μM; SK-MEL-28, Melanoma; read-out: Growth percent rate
MDA-MB-435 = test: NCI60 one-dose screen (10 μM), Melanoma; assay type: cell-based; settings: Homo sapiens; 10 μM; MDA-MB-435, Melanoma; read-out: Growth percent rate
OVCAR-8 = test: NCI60 one-dose screen (10 μM), Ovarian Cancer; assay type: cell-based; settings: Homo sapiens; 10 μM; OVCAR-8, Ovarian Cancer; read-out: Growth percent rate
SK-MEL-2 = test: NCI60 one-dose screen (10 μM), Melanoma; assay type: cell-based; settings: Homo sapiens; 10 μM; SK-MEL-2, Melanoma; read-out: Growth percent rate
SN12C = test: NCI60 one-dose screen (10 μM), Renal Cancer; assay type: cell-based; settings: Homo sapiens, 10 μM, Renal Cancer, read-out: Growth percent rate
NCI-H460 = test: NCI60 one-dose screen (10 μM), Non-small Cell Lung Cancer; assay type: cell-based; settings: Homo sapiens; 10 μM; NCI-H460, Non-small Cell Lung Cancer; read-out: Growth percent rate
OVCAR-3 = test: NCI60 one-dose screen (10 μM), Ovarian Cancer; assay type: cell-based; settings: Homo sapiens; 10 μM; OVCAR-3, Ovarian Cancer; read-out: Growth percent rate
A549/ATCC = test: NCI60 one-dose screen (10 μM), Non-small Cell Lung Cancer; assay type: cell-based; settings: Homo sapiens; 10 μM; A549/ATCC, Non-small Cell Lung Cancer; read-out: Growth percent rate
SNB-75 = test: NCI60 one-dose screen (10 μM), CNS Cancer; assay type: cell-based, human; settings: Homo sapiens; 10 μM; SNB-75, CNS Cancer; read-out: Growth percent rate
SF-295 = test: NCI60 one-dose screen (10 μM), CNS Cancer; assay type: cell-based; settings: Homo sapiens; 10 μM; SF-295, CNS Cancer; read-out: Growth percent rate
SW-620 = test: NCI60 one-dose screen (10 μM), Colon Cancer; assay type: cell-based; settings: Homo sapiens; 10 μM; SW-620, Colon Cancer; read-out: Growth percent rate
HL-60(TB) = test: NCI60 one-dose screen (10 μM), Leukemia; assay type: cell-based; settings: Homo sapiens; 10 μM; HL-60(TB), Leukemia; read-out: Growth percent rate
786–0 = test: NCI60 one-dose screen (10 μM), Renal Cancer; assay type: cell-based; settings: Homo sapiens; 10 μM; 786-0, Renal Cancer; read-out: Growth percent rate
A498 = test: NCI60 one-dose screen (10 μM), Renal Cancer; assay type: cell-based; settings: Homo sapiens; 10 μM; A498, Renal Cancer; read-out: Growth percent rate
HCC-2998 = test: NCI60 one-dose screen (10 μM), Colon Cancer; assay type: cell-based; settings: Homo sapiens; 10 μM; HCC-2998, Colon Cancer; read-out: Growth percent rate
NCI-H322M = test: NCI60 one-dose screen (10 μM), Non-small Cell Lung Cancer; assay type: cell-based; settings: Homo sapiens, 10 μM, Non-small Cell Lung Cancer, read-out: Growth percent rate
RPMI-8226 = test: NCI60 one-dose screen (10 μM), Leukemia; assay type: cell-based; settings: Homo sapiens; 10 μM; RPMI-8226, Leukemia; read-out: Growth percent rate
K-562 = test: NCI60 one-dose screen (10 μM), Leukemia; assay type: cell-based; settings: Homo sapiens, K562; 10 μM; K-562, Leukemia; read-out: Growth percent rate
SK-MEL-5 = test: NCI60 one-dose screen (10 μM), Melanoma; assay type: cell-based, human; settings: Homo sapiens; 10 μM; SK-MEL-5, Melanoma; read-out: Growth percent rate
HCT-15 = test: NCI60 one-dose screen (10 μM), Colon Cancer; assay type: cell-based; settings: Homo sapiens; 10 μM; HCT-15, Colon Cancer; read-out: Growth percent rate
COLO 205 = test: NCI60 one-dose screen (10 μM), Colon Cancer; assay type: cell-based, human; settings: Homo sapiens; 10 μM; COLO 205, Colon Cancer; read-out: Growth percent rate
HOP-62 = test: NCI60 one-dose screen (10 μM), Non-small Cell Lung Cancer; assay type: cell-based; settings: Homo sapiens; 10 μM; HOP-62, Non-small Cell Lung Cancer; read-out: Growth percent rate
KM12 = test: NCI60 one-dose screen (10 μM), Colon Cancer; assay type: cell-based, human; settings: Homo sapiens; 10 μM; KM12, Colon Cancer; read-out: Growth percent rate
HCT-116 = test: NCI60 one-dose screen (10 μM), Colon Cancer; assay type: cell-based; settings: Homo sapiens; 10 μM; HCT-116, Colon Cancer; read-out: Growth percent rate
NCI-H522 = test: NCI60 one-dose screen (10 μM), Non-small Cell Lung Cancer; assay type: cell-based; settings: Homo sapiens; 10 μM; NCI-H522, Non-small Cell Lung Cancer; read-out: Growth percent rate
MOLT-4 = test: NCI60 one-dose screen (10 μM), Leukemia; assay type: cell-based, human; settings: Homo sapiens; 10 μM; MOLT-4, Leukemia; read-out: Growth percent rate
EKVX = test: NCI60 one-dose screen (10 μM), Non-small Cell Lung Cancer; assay type: cell-based; settings: Homo sapiens, 10 μM, Non-small Cell Lung Cancer, read-out: Growth percent rate
UACC-257 = test: NCI60 one-dose screen (10 μM), Melanoma; assay type: cell-based; settings: Homo sapiens; 10 μM; UACC-257, Melanoma; read-out: Growth percent rate
CCRF-CEM = test: NCI60 one-dose screen (10 μM), Leukemia; assay type: cell-based; settings: Homo sapiens, 10 μM, Leukemia, read-out: Growth percent rate
SNB-19 = test: NCI60 one-dose screen (10 μM), CNS Cancer; assay type: cell-based; settings: Homo sapiens; 10 μM; SNB-19, CNS Cancer; read-out: Growth percent rate
HT29 = test: NCI60 one-dose screen (10 μM), Colon Cancer; assay type: cell-based; settings: Homo sapiens, HT-29; 10 μM; HT29, Colon Cancer; read-out: Growth percent rate
MCF7 = test: NCI60 one-dose screen (10 μM), Breast Cancer; assay type: cell-based; settings: Homo sapiens; 10 μM; MCF7, Breast Cancer; read-out: Growth percent rate
U251 = test: NCI60 one-dose screen (10 μM), CNS Cancer; assay type: cell-based; settings: Homo sapiens, U-251; 10 μM; U251, CNS Cancer; read-out: Growth percent rate
M14 = test: NCI60 one-dose screen (10 μM), Melanoma; assay type: cell-based; settings: Homo sapiens; 10 μM; M14, Melanoma; read-out: Growth percent rate
HS 578T = test: NCI60 one-dose screen (10 μM), Breast Cancer; assay type: cell-based; settings: Homo sapiens; 10 μM; HS 578T, Breast Cancer; read-out: Growth percent rate
ACHN = test: NCI60 one-dose screen (10 μM), Renal Cancer; assay type: cell-based; settings: Homo sapiens, 10 μM, Renal Cancer, read-out: Growth percent rate
NCI-H23 = test: NCI60 one-dose screen (10 μM), Non-small Cell Lung Cancer; assay type: cell-based; settings: Homo sapiens; 10 μM; NCI-H23, Non-small Cell Lung Cancer; read-out: Growth percent rate
MALME-3M = test: NCI60 one-dose screen (10 μM), Melanoma; assay type: cell-based; settings: Homo sapiens; 10 μM; MALME-3M, Melanoma; read-out: Growth percent rate
SF-539 = test: NCI60 one-dose screen (10 μM), CNS Cancer; assay type: cell-based, human; settings: Homo sapiens; 10 μM; SF-539, CNS Cancer; read-out: Growth percent rate

SMILES: CC[C@]12C=CCN3CC[C@@]4(c5ccc(OC)cc5N(C)[C@H]4[C@@](O)(C(=O)OC)[C@@H]1OC(=O)CCC(=O)N1CCN(C)CC1)[C@@H]32 [Compound 27]
- activity at 10 µM (IGROV1): 96.8%
- activity at 10 µM (TK-10): 91.9%
- activity at 10 µM (CAKI-1): 96.6%
- activity at 10 µM (SK-MEL-28): 94.8%
- activity at 10 µM (MDA-MB-435): 121%
- activity at 10 µM (OVCAR-8): 99.6%
- activity at 10 µM (SK-MEL-2): 88.2%
- activity at 10 µM (SN12C): 86.7%
- activity at 10 µM (NCI-H460): 102%
- activity at 10 µM (OVCAR-3): 89.2%
- activity at 10 µM (A549/ATCC): 94.2%
- activity at 10 µM (SNB-75): 64.3%
- activity at 10 µM (SF-295): 97.9%
- activity at 10 µM (SW-620): 105%
- activity at 10 µM (HL-60(TB)): 112%
- activity at 10 µM (786–0): 99.7%
- activity at 10 µM (A498): 105%
- activity at 10 µM (HCC-2998): 86.5%
- activity at 10 µM (NCI-H322M): 110%
- activity at 10 µM (RPMI-8226): 94.5%
- activity at 10 µM (K-562): 124%
- activity at 10 µM (SK-MEL-5): 91.5%
- activity at 10 µM (HCT-15): 103%
- activity at 10 µM (COLO 205): 118%
- activity at 10 µM (HOP-62): 119%
- activity at 10 µM (KM12): 100%
- activity at 10 µM (HCT-116): 103%
- activity at 10 µM (NCI-H522): 84.5%
- activity at 10 µM (MOLT-4): 100%
- activity at 10 µM (EKVX): 90.7%
- activity at 10 µM (UACC-257): 99.2%
- activity at 10 µM (CCRF-CEM): 104%
- activity at 10 µM (SNB-19): 108%
- activity at 10 µM (HT29): 96.7%
- activity at 10 µM (MCF7): 81%
- activity at 10 µM (U251): 110%
- activity at 10 µM (M14): 114%
- activity at 10 µM (HS 578T): 70.8%
- activity at 10 µM (ACHN): 99.2%
- activity at 10 µM (NCI-H23): 98.9%
- activity at 10 µM (MALME-3M): 112%
- activity at 10 µM (SF-539): 100%

SMILES: CCC12C=CCN3CCC4(c5cc(NC(=O)CN6CCN(C)CC6)c(OC)cc5N(C)C4C(O)(C(=O)OC)C1OC(C)=O)C32 (stereo not drawn) [Compound 16]
- activity at 10 µM (IGROV1): 112%
- activity at 10 µM (TK-10): 103%
- activity at 10 µM (CAKI-1): 89.5%
- activity at 10 µM (SK-MEL-28): 111%
- activity at 10 µM (MDA-MB-435): 114%
- activity at 10 µM (OVCAR-8): 97.8%
- activity at 10 µM (SK-MEL-2): 108%
- activity at 10 µM (SN12C): 109%
- activity at 10 µM (NCI-H460): 142%
- activity at 10 µM (OVCAR-3): 138%
- activity at 10 µM (A549/ATCC): 97.1%
- activity at 10 µM (SNB-75): 95.6%
- activity at 10 µM (SF-295): 98.8%
- activity at 10 µM (SW-620): 124%
- activity at 10 µM (HL-60(TB)): 97.5%
- activity at 10 µM (786–0): 106%
- activity at 10 µM (A498): 158%
- activity at 10 µM (HCC-2998): 106%
- activity at 10 µM (NCI-H322M): 101%
- activity at 10 µM (RPMI-8226): 102%
- activity at 10 µM (K-562): 85.8%
- activity at 10 µM (SK-MEL-5): 102%
- activity at 10 µM (HCT-15): 101%
- activity at 10 µM (COLO 205): 105%
- activity at 10 µM (HOP-62): 104%
- activity at 10 µM (KM12): 112%
- activity at 10 µM (HCT-116): 101%
- activity at 10 µM (NCI-H522): 90.2%
- activity at 10 µM (MOLT-4): 108%
- activity at 10 µM (EKVX): 94.8%
- activity at 10 µM (UACC-257): -7.95%
- activity at 10 µM (CCRF-CEM): 112%
- activity at 10 µM (SNB-19): 105%
- activity at 10 µM (HT29): 104%
- activity at 10 µM (MCF7): 84.3%
- activity at 10 µM (U251): 97.4%
- activity at 10 µM (M14): 101%
- activity at 10 µM (HS 578T): 111%
- activity at 10 µM (ACHN): 104%
- activity at 10 µM (NCI-H23): 103%
- activity at 10 µM (MALME-3M): 97.5%
- activity at 10 µM (SF-539): 101%
